Molecules are shown by their SMILES.

For one assay, the system named is MDAMB468.1. Kind of assay: Cell Titer Glo (CTG) proliferation assay, MDA-MB-468. The assay is classed as cell-based. The settings on record: Homo sapiens, MDA-MB-468; MDAMB468.1 cells, 72.0 hrs.; read-out: AVE CTG Proliferation MDAMB468.1 72.0 hrs. As for the experimental part: (§1) Seed cells in 40 μL of cell culture media into each well of 384-well cell culture plate, spin them at room temperature at 1,000 RPM for 1 minute and then transfer the plates into 37° C. 5% CO2 incubator overnight. Next day, treat cells with 40 nL of diluted compound and return to incubator. After compound treatment for 3 days, Add 30 μL of CellTiter-Glo reagent (Promega) into each well to be detected. Then place the plates at room temperature for 30 min followed by reading on EnVision. Inhibition activity calculated as % DMSO=100×(LumSample-Lum low control)/(Lum high control-Lum low control) where high control is from cells treated with 0.1% DMSO and Low control obtained from PBS only. Use XLFit (equation 201) to calculate IC50 (A+ ((B−A)/(1[…]((x/C)^D)))) where A: Bottom, B: Top, C: IC50, D: Slope.
In general terms: ATP-based viability assays read luminescence as a measure of living cells.

The test system of a further assay is KU1919.1. Briefly: Cell Titer Glo (CTG) proliferation assay, KU1919. The settings on record: Homo sapiens, KU-19-19; KU1919.1 cells, 72.0 hrs.; read-out: AVE CTG Proliferation KU1919.1 72.0 hrs. It counts as cell-based. As for the experimental part:
as §1

`C[C@@H]1C[C@@H](O)c2ncnc(N3CCN(C(=O)[C@H](CNCCNC(=O)CNC45CCC(CN6CCN(C(=O)[C@H](NC(=O)c7cccc(C8CCCN(C(=O)CNCc9ccc(F)cc9F)C8)c7)C7CCCCC7)CC6)(CC4)OC5)c4ccc(Cl)cc4)CC3)c21` (some centres unmarked) [Compound I-203]: the IC50 in the assay on MDAMB468.1 and in the assay with KU1919.1 was 5 to 10 µM in each case.

For the molecule `C[C@@H]1C[C@@H](O)c2ncnc(N3CCN(C(=O)[C@H](CNCCNC(=O)CN4CCC(CN5CCN(C(=O)[C@H](NC(=O)c6cccc(C7CCCN(C(=O)CNC8CC8)C7)c6)C6CCCCC6)CC5)CC4)c4ccc(Cl)cc4)CC3)c21` (some centres unmarked) [Compound I-205], the IC50 in the assay with MDAMB468.1 was over 10 µM; with KU1919.1 it was 5 to 10 µM.

For `C[C@@H]1C[C@@H](O)c2ncnc(N3CCN(C(=O)[C@H](CNC4CCN(CC5CCN(C(=O)[C@H](NC(=O)c6cccc(C7CCCN(C(=O)C8CC8)C7)c6)C6CCCCC6)CC5)CC4)c4ccc(Cl)cc4)CC3)c21` (some centres unmarked) [Compound I-214], the IC50 in the assay on MDAMB468.1 and in the assay on KU1919.1 was 1 to 5 µM throughout.

In the case of `C[C@@H]1C[C@@H](O)c2ncnc(N3CCN(C(=O)[C@H](CNCCNC(=O)CNC45CCC(CN6CCN(C(=O)[C@H](NC(=O)c7cccc(C8CCCN(C(=O)C9CC9)C8)c7)C7CCCCC7)CC6)(CC4)OC5)c4ccc(Cl)cc4)CC3)c21` (some centres unmarked) [Compound I-215], the IC50 in the assay with MDAMB468.1 and with KU1919.1 was over 10 µM each time.

Regarding `CCc1cccc(-c2cnc(C(=O)NCCOCCNCC(=O)NCCN(C[C@@H](C(=O)N3CCN(c4ncnc5c4[C@H](C)C[C@H]5O)CC3)c3ccc(Cl)cc3)C(C)C)c(NC(C)=O)c2)c1` [Compound I-216], the IC50 in the assay with MDAMB468.1 and in the assay with KU1919.1 was 1 to 5 µM in each case.

With `CCc1cccc(-c2cnc(C(=O)NCCOCCNCC(=O)NCCN(C[C@@H](C(=O)N3CCN(c4ncnc5c4[C@H](C)C[C@H]5O)CC3)c3ccc(Cl)cc3)C(C)C)c(N)c2)c1` [Compound I-217], the IC50 with MDAMB468.1 and in the assay on KU1919.1 was 1 to 5 µM each time.

In the case of `NC1(C(=O)N[C@@H](CCN2CCN(C(=O)CN3CCC(OC4CCN(C(=O)c5cc(C6CCCN(C(=O)CNCc7ccc(F)cc7F)C6)ccc5F)CC4)CC3)CC2)c2ccc(Cl)cc2)CCN(c2ncnc3[nH]ccc23)CC1` (some centres unmarked) [Compound I-223], the IC50 with MDAMB468.1 and with KU1919.1 was 1 to 5 µM each time.

In the case of `NC1(C(=O)N[C@@H](CCN2CCN(C(=O)CN3CCC(OC4CCN(C(=O)[C@H](NC(=O)c5cc(C6CCCN(C(=O)CNCc7ccc(F)cc7F)C6)ccc5F)C5CCCCC5)CC4)CC3)CC2)c2ccc(Cl)cc2)CCN(c2ncnc3[nH]ccc23)CC1` (some centres unmarked) [Compound I-225], the IC50 with MDAMB468.1 and with KU1919.1 was 1 to 5 µM in each case.

Take `NC1(C(=O)N[C@@H](CCN2CCC(OC3CCN(C(=O)c4cccc(C5CCCN(C(=O)CNCc6ccc(F)cc6F)C5)c4)CC3)CC2)c2ccc(Cl)cc2)CCN(c2ncnc3[nH]ccc23)CC1` (some centres unmarked) [Compound I-253]: the IC50 with MDAMB468.1 and in the assay with KU1919.1 was 1 to 5 µM in each case.

In the case of `NC1(C(=O)N[C@@H](CCN2CCN(C(=O)CN3CCC(OC4CCN(C(=O)c5cccc(C6CCCN(C(=O)C7CC7)C6)c5)CC4)CC3)CC2)c2ccc(Cl)cc2)CCN(c2ncnc3[nH]ccc23)CC1` (some centres unmarked) [Compound I-255], the IC50 in the assay with MDAMB468.1 and in the assay with KU1919.1 was over 10 µM throughout.

Turning to `NC1(C(=O)N[C@@H](CCN2CCN(C(=O)CN3CCC(OC4CCN(C(=O)c5cccc(C6CCCN(C(=O)CNCc7ccc(F)cc7F)C6)c5)CC4)CC3)CC2)c2ccc(Cl)cc2)CCN(c2ncnc3[nH]ccc23)CC1` (some centres unmarked) [Compound I-256], the IC50 in the assay on MDAMB468.1 and in the assay with KU1919.1 was 5 to 10 µM each time.

As to `NC1(C(=O)N[C@@H](CCN2CCN(C(=O)CN3CCC(OC4CCN(C(=O)c5cccc(C6CCCN(C(=O)CNC7CC7)C6)c5)CC4)CC3)CC2)c2ccc(Cl)cc2)CCN(c2ncnc3[nH]ccc23)CC1` (some centres unmarked) [Compound I-257], the IC50 with MDAMB468.1 and in the assay on KU1919.1 was over 10 µM throughout.

As for `CCc1cccc(-c2cnc(C(=O)NCCOCCNCC[C@H](NC(=O)C3(N)CCN(c4ncnc5[nH]ccc45)CC3)c3ccc(Cl)cc3)c(NC(=O)OC(C)(C)C)c2)c1` [Compound I-301], the IC50 in the assay on MDAMB468.1 and in the assay with KU1919.1 was 1 to 5 µM throughout.

(Values after US20250171465A1, “AKT INHIBITORS” (Stablix, Inc., priority 2023, published 2025).)
